This is an account of results in patent publication US12012407B1, “Pyrazolo[1,5-a]pyrido[4,3-e]pyrimidine-3-carboxylic acids as CK2 inhibitors” (KING FAISAL UNIVERSITY, priority 2024, dated 2024).

Assay [1] relates to PC3 (prostate). Kind of assay: In vitro cytotoxic activity (MTT) assay, PC3. It is filed as cell-based. The conditions noted are these: Homo sapiens, Prostate cell; PC3 (prostate) cells, exposed for 96 hours; read-out: Cytotoxicity activity IC50 (50% inhibition of cell proliferation). On the procedure:
(§1) Compounds 1-16 were screened for their in vitro cytotoxic activity utilizing a 3-(4,5-dimethyl-thiazol-2-yl)-2,5-diphenyltetrazolium bromide (MTT) assay against selected cancer human cell lines consisting of PC3 (prostate), HCT116 (colon), A375 (melanoma), H1299 (lung), MIAPaCa-2 (pancreas), HL60 (leukemia), MCF7 (breast), MDA-MB-231 (breast) (T. Mosmann, J. Immunol. Meth., 1983, 65, 55-63). The cells were cultured at 37° C. in RMPI1640 medium supplemented with 10% fetal bovine serum, 50 IU/mL penicillin, and 50 μg/mL streptomycin in a 5% CO2 incubator. All cells were sub-cultured 3 times/week by trypsinisation. Viable cells were seeded and allowed to adhere for 12 hours before a test drug was added in 96-well plates at an initial density of 1.0×10^5 cells/mL. Tumor cell lines were separately exposed to various concentrations of the tested compounds followed by incubation at a temperature of 37° C. during 96 hours inside a medium of fresh RMPI 1640. Cells were subsequently incubated at 37° C. using MTT at 0.5 mg/mL during 4 hours. After removal of supernatant, formazan crystals were dissolved in isopropanol and the optical density was measured at 570 nm. CX-4945 was used as a positive control.

Assay [2] has as its system HCT116 (colon). Kind of assay: In vitro cytotoxic activity (MTT) assay, HCT116. It is filed as cell-based. The following applies: Homo sapiens, HCT-116; HCT116 (colon) cells, exposed for 96 hours; read-out: Cytotoxicity activity IC50 (50% inhibition of cell proliferation). As for the experimental part: as §1
Assay [3] concerns A375 (melanoma). Kind of assay: In vitro cytotoxic activity (MTT) assay, A375. The following applies: Homo sapiens, A-375; A375 (melanoma) cells, exposed for 96 hours; read-out: Cytotoxicity activity IC50 (50% inhibition of cell proliferation). It is filed as cell-based. As for the experimental part:
as §1

The test system of assay [4] is H1299 (lung). The experiment in a line: In vitro cytotoxic activity (MTT) assay, H1299. The format is cell-based. The conditions noted are these: Homo sapiens, NCI-H1299; H1299 (lung) cells, exposed for 96 hours; read-out: Cytotoxicity activity IC50 (50% inhibition of cell proliferation). As for the experimental part:
as §1

In assay [5] the test system is MIAPaCa-2 (pancreas). Kind of assay: In vitro cytotoxic activity (MTT) assay, MIAPaCa-2. The format is cell-based. The following applies: Homo sapiens, MIA PaCa-2; MIAPaCa-2 (pancreas) cells, exposed for 96 hours; read-out: Cytotoxicity activity IC50 (50% inhibition of cell proliferation). On the procedure: as §1
For assay [6], the system named is HL60 (leukemia). The experiment in a line: In vitro cytotoxic activity (MTT) assay, HL60. It is filed as cell-based. The conditions noted are these: Homo sapiens, HL-60; HL60 (leukemia) cells, exposed for 96 hours; read-out: Cytotoxicity activity IC50 (50% inhibition of cell proliferation). As for the experimental part: as §1
Assay [7] concerns MCF7 (breast). Kind of assay: In vitro cytotoxic activity (MTT) assay, MCF7. It is filed as cell-based. The conditions noted are these: Homo sapiens; MCF7 (breast) cells, exposed for 96 hours; read-out: Cytotoxicity activity IC50 (50% inhibition of cell proliferation). As for the experimental part: as §1
In assay [8] the test system is MDA-MB-231 (breast). Kind of assay: In vitro cytotoxic activity (MTT) assay, MDA-MB-231. It is filed as cell-based. The following applies: Homo sapiens; MDA-MB-231 (breast) cells, exposed for 96 hours; read-out: Cytotoxicity activity IC50 (50% inhibition of cell proliferation). As for the experimental part: as §1
Assay [9] concerns the target T1, recombinant human CK2 (RRBB-holoenzyme) (Homo sapiens, UniProt P68400).
T1 construct: purchased Millipore
The experiment in a line: CK2 Kinase Assay (33P-ATP, filter plate). The format is biochemical. The following applies: final ATP concentration 15 μM, 10 min at 30° C., eight concentrations; read-out: protein kinase CK2 inhibition IC50. As for the experimental part:
CK2 Kinase Assay was conducted using the protocol as described in Pierre F. et al; J. Med. Chem. 2011, 54, 635-654. The tested compounds in aqueous solution were added at a volume of 10 μL to a reaction mixture comprising 10 μL of assay dilution buffer (ADB; 20 mM MOPS, pH 7.2, 25 mM β-glycerol phosphate, 5 mM EGTA, 1 mM sodium orthovanadate, and 1 mM dithiothreitol), 10 μL of substrate peptide (RRRDDDSDDD, dissolved in ADB at a concentration of 1 mM), 10 μL of recombinant human CK2 (RRBB-holoenzyme, 25 ng dissolved in ADB; Millipore). Reactions were initiated by the addition of 10 μL of ATP solution (90% 75 mMMgCl2, 75 μM ATP (final ATP concentration: 15 μM) dissolved in ADB; 10% [Y-33P] ATP (stock 1 mCi/100 μL; 3000 Ci/mmol (Perkin-Elmer) and maintained for 10 min at 30° C. The reactions were quenched with 100 μL of 0.75% phosphoric acid and then transferred to and filtered through a phosphor cellulose filter plate (Millipore). After washing each well five times with 0.75% phosphoric acid, the plate was dried under vacuum for 5 min and, following the addition of 15 μL of scintillation fluid to each well, the residual radioactivity was measured using a Wallac luminescence counter. The IC50 values were derived from eight concentrations of test inhibitors.

pIC50: −log10 of the molar value.

T1 sequence (P68400 whole entry): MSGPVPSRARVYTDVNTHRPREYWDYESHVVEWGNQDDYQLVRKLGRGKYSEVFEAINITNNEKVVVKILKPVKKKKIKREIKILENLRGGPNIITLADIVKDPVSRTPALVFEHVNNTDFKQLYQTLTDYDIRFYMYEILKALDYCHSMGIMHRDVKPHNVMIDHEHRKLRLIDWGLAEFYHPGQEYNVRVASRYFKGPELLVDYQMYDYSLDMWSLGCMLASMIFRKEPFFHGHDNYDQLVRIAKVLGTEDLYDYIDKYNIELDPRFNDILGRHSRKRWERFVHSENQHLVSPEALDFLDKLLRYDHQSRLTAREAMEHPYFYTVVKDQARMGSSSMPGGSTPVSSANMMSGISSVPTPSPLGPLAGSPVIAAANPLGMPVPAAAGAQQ
T1 sequence (P67870 whole entry partner): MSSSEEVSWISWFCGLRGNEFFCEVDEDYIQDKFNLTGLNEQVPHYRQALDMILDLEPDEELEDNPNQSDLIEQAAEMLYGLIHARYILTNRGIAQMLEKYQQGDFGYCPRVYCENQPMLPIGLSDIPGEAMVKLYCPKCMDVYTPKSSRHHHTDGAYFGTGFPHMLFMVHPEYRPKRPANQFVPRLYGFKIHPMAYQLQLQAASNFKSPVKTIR

For the compound `O=C(O)c1cnn2c1nc(Nc1cccc(Cl)c1)c1ccncc12` [Compound 1, 5-((3-chlorophenyl)amino)pyrazolo[1,5-a]pyrido[4,3-e]pyrimidine-3-carboxylic acid], the pIC50 in assay [1] is 5.68; in [2], 5.72; in [3] it was 5.37; in assay [4], 5.80; in assay [5], 5.96; in assay [6], 5.41. The pIC50 in assay [7] is 5.28; in assay [8] it was 5.36; in assay [9], 7.02.
